Data: ChEMBL document CHEMBL5465560, “Selectivity Literature for EUbOPEN Chemogenomic Library” (2024)

How the values were obtained:
[1] = molecular target: Serine/threonine-protein kinase PAK 4 (Homo sapiens, UniProt O96013); settings: at 10 µM
[2] = molecular target: Tyrosine-protein kinase ABL1 (Homo sapiens, UniProt P00519); assay: Selectivity interaction (Kinase screening (Nanosyn)) EUB0000604a ABL1
[3] = molecular target: Insulin receptor-related protein (Homo sapiens) (UniProt P14616); assay: Selectivity interaction (KinomeScan (DiscoverX)) EUB0001049a INSRR; settings: at 1 µM
[4] = molecular target: Serine/threonine-protein kinase SIK2 (Homo sapiens) (UniProt Q9H0K1); assay: Selectivity interaction (KinomeScan (DiscoverX)) EUB0001049a SIK2; settings: at 1 µM
[5] = molecular target: Serine/threonine-protein kinase PRP4 homolog (Homo sapiens) (UniProt Q13523); assay: Selectivity interaction (ActivX KiNativ screen (kinase selectivity in THP-1 cell lysates)) EUB0000639a PRPF4; format: subcellular; settings: lysate, at 1 µM
[6] = molecular target: T1, Muscarinic acetylcholine receptor M1 (Homo sapiens) (UniProt P11229); assay: Selectivity interaction (Panel of non-epigenetic targets (kinases, GPCRs, ion channels, and transporters, Eurofins) ) EUB0000271b CHRM1; settings: at 1 µM
T1 sequence (whole entry): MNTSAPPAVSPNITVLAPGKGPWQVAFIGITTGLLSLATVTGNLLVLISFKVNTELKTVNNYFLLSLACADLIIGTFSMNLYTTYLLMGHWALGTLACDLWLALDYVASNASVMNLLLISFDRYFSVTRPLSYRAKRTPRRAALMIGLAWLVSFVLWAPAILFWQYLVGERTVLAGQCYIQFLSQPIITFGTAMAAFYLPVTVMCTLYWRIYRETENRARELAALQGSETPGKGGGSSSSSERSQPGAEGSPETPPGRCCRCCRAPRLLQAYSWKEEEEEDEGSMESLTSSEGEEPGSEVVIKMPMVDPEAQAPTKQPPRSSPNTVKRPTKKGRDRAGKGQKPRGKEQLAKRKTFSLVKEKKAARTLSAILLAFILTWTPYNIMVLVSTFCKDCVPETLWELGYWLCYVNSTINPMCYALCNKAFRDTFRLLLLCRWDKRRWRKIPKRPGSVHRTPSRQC

[7] = system: Hepatocyte growth factor receptor (Homo sapiens), P08581 [Y1235D]; settings: at 10 µM
[8] = molecular target: T2, cGMP-dependent protein kinase 1 (Homo sapiens) (UniProt Q13976); assay: Selectivity interaction (KinomeScan (DiscoverX)) EUB0000229b PRKG1; settings: at 10 µM
T2 sequence (whole entry): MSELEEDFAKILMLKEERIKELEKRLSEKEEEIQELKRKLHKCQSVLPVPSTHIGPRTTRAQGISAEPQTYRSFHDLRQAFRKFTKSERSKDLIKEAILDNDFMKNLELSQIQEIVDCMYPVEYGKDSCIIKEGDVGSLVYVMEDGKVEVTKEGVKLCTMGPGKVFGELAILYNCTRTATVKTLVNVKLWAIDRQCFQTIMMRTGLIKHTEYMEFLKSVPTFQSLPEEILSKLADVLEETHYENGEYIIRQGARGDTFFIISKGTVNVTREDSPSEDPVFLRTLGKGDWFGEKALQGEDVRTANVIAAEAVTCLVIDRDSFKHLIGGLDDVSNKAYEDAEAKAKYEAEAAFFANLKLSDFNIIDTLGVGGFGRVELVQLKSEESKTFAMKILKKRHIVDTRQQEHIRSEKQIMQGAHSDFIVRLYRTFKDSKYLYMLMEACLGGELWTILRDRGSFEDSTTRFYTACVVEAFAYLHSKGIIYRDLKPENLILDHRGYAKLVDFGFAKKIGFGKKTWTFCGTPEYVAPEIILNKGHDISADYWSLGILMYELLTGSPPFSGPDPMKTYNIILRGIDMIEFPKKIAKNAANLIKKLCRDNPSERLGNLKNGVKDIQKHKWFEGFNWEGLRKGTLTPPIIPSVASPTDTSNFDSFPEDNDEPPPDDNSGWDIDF

[9] = molecular target: T3, Hormonally up-regulated neu tumor-associated kinase (Homo sapiens) (UniProt P57058); assay: Selectivity interaction (KinomeScan (DiscoverX)) EUB0000092b HUNK; settings: at 10 µM
T3 sequence (whole entry): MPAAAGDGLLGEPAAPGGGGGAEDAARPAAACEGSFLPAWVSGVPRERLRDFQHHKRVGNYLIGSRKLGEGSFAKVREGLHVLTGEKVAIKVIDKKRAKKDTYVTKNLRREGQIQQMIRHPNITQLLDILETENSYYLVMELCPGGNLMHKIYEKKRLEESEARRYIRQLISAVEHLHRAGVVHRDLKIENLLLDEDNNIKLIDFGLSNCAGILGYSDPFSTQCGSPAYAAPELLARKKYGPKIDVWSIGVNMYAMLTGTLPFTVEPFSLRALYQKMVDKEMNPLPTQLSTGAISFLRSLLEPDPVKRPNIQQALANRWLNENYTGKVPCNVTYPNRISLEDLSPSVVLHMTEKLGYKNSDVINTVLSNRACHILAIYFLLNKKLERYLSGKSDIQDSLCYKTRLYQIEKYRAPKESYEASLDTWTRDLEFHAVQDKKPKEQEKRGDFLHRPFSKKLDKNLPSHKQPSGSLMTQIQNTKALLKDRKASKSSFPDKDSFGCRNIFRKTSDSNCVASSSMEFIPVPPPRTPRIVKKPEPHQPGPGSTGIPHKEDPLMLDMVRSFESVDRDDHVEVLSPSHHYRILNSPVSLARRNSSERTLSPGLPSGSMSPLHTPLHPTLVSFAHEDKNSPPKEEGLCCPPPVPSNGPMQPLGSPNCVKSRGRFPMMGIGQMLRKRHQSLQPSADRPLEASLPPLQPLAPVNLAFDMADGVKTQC

Sequence of Insulin receptor-related protein (Homo sapiens) (P14616 27-742 limits assumed): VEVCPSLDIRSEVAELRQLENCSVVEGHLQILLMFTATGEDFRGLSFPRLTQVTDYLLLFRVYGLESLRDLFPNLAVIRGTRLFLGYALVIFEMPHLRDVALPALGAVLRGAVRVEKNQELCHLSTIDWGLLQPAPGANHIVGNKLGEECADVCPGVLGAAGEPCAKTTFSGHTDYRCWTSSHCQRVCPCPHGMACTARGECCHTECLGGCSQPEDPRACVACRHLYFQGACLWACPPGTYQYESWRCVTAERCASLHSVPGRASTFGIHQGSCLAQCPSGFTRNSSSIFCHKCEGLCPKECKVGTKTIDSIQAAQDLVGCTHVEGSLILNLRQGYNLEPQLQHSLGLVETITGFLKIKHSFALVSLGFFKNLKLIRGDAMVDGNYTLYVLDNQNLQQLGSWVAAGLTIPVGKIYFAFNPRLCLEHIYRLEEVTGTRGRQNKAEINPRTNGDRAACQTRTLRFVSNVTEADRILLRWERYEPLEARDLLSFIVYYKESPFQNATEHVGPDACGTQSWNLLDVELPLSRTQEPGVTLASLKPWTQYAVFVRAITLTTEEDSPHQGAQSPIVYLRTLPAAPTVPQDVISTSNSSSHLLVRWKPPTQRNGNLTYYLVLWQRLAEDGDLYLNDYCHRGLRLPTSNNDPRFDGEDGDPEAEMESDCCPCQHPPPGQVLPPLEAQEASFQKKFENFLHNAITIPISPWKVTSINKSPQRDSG
Sequence of Insulin receptor-related protein (Homo sapiens) (P14616 747-1297 limits assumed): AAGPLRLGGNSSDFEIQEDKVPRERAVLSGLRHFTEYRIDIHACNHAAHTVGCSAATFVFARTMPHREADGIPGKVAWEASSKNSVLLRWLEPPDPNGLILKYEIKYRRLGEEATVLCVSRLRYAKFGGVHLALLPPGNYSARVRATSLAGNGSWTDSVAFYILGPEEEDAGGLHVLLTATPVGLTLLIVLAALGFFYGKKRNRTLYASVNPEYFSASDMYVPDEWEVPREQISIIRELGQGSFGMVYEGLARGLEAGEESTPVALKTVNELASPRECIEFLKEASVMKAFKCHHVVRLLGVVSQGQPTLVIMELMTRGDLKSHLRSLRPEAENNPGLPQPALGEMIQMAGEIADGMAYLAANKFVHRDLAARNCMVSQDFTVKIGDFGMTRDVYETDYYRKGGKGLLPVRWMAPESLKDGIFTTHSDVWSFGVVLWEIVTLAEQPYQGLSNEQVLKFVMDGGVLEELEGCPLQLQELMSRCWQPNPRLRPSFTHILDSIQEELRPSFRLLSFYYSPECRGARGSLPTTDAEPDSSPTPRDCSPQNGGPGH
Sequence of Tyrosine-protein kinase ABL1 (P00519 whole entry): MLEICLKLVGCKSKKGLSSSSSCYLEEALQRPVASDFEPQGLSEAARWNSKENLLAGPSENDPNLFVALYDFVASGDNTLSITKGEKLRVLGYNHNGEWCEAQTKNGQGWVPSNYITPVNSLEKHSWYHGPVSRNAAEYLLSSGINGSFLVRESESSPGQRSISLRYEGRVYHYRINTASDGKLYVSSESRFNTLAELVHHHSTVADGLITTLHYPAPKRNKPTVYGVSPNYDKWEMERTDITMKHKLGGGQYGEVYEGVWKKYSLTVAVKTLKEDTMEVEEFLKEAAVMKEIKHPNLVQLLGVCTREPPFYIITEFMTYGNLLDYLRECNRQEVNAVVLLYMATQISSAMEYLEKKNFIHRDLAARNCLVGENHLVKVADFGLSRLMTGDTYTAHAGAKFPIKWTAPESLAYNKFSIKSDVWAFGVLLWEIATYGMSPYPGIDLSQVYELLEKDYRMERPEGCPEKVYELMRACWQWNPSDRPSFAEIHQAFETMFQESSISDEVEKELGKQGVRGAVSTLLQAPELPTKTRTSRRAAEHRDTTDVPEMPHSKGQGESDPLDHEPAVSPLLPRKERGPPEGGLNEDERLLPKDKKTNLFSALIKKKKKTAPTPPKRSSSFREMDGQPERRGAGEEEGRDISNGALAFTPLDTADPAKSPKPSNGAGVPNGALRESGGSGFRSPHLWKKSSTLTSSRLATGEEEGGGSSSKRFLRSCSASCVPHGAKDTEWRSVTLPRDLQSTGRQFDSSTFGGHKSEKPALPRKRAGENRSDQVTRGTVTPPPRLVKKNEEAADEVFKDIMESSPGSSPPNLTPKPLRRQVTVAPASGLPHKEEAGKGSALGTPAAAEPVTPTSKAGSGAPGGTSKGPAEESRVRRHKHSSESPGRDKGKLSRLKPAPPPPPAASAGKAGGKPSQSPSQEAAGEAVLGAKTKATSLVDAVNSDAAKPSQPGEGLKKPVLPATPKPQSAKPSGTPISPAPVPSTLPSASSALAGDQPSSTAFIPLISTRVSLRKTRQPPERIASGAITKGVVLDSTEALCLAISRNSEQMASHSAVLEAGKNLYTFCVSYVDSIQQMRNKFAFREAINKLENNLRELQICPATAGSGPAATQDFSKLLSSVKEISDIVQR
Sequence of Serine/threonine-protein kinase PAK 4 (O96013 whole entry, looked up): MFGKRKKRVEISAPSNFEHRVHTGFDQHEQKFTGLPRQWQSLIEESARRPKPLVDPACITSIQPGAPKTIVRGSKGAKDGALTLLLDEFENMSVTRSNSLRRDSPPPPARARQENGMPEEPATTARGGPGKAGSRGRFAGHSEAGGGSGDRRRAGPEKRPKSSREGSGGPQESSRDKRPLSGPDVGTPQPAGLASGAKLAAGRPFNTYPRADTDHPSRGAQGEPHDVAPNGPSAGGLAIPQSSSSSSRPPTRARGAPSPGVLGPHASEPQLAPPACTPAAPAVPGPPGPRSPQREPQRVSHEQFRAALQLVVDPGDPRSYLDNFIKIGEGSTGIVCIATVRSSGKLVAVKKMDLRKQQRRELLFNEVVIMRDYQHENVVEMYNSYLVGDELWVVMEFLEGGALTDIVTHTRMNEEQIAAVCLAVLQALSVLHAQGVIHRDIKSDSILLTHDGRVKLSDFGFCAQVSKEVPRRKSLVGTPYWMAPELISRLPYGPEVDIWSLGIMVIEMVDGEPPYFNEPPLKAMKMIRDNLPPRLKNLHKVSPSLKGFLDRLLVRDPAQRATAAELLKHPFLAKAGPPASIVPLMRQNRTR
Sequence of Serine/threonine-protein kinase PRP4 homolog (Homo sapiens) (Q13523 whole entry): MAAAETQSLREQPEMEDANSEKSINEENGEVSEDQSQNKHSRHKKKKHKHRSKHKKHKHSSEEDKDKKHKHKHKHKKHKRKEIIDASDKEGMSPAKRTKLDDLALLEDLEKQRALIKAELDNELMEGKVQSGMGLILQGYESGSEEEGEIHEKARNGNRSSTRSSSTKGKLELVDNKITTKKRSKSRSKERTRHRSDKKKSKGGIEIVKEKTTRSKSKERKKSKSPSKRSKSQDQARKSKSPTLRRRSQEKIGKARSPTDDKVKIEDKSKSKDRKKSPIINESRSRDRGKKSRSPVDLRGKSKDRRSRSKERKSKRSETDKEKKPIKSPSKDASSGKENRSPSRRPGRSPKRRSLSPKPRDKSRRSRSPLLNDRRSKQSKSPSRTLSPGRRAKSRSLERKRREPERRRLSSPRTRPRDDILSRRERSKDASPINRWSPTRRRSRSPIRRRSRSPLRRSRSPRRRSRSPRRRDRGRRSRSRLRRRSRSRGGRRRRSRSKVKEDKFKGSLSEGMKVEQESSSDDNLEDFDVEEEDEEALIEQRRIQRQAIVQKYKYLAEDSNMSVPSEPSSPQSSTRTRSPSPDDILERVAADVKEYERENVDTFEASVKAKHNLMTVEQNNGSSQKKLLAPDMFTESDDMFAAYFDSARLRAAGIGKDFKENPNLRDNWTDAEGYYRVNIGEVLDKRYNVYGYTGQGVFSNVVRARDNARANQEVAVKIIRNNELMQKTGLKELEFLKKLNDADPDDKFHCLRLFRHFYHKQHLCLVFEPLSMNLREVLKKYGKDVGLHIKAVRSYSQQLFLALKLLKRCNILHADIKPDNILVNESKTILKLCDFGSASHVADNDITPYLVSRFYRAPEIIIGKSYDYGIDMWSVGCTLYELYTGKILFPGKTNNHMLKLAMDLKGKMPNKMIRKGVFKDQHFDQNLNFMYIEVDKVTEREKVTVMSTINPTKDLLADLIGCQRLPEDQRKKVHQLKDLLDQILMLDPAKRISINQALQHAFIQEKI
Sequence of Serine/threonine-protein kinase SIK2 (Homo sapiens) (Q9H0K1 whole entry, looked up): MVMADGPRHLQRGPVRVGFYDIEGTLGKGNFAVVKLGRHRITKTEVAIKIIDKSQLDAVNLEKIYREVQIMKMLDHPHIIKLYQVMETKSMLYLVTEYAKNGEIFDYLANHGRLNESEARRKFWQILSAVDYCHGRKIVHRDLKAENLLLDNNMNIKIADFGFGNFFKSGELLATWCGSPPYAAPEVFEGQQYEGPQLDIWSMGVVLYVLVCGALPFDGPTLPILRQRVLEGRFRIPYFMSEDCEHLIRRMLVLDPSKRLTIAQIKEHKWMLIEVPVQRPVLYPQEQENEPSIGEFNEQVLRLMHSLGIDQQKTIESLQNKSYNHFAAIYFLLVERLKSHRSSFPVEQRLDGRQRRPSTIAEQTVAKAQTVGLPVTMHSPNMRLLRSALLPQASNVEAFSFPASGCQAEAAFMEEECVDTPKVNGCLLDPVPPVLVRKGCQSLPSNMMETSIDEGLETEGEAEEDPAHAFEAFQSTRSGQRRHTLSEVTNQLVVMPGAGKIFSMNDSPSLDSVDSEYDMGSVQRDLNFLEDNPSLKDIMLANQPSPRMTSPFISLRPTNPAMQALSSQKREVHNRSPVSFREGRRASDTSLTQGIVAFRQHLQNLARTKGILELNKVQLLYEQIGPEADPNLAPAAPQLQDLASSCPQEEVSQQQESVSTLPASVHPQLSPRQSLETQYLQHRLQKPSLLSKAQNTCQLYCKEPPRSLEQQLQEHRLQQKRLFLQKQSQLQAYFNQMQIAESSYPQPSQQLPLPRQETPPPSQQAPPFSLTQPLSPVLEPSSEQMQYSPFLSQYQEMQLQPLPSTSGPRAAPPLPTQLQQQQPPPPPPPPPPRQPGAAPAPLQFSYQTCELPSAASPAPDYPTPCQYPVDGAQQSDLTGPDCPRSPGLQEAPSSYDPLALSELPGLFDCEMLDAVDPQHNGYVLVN

Structure (SMILES): Cc1cc([C@@H](C)Nc2ccccc2C(=O)O)c2nc(N3CCOCC3)cc(=O)n2c1 [AZD-6482]
- % of control [1]: 100%

Structure (SMILES): Cc1cnc(Nc2ccc(F)cc2Cl)nc1-c1c[nH]c(C(=O)N[C@H](CO)c2cccc(Cl)c2)c1
- % of inhibition [2]: 3%

Structure (SMILES): COc1cc(Nc2nc(C)cc(-c3cnn4nc(OC)ccc34)n2)cc(C(F)(F)F)c1
- % of control [3]: 86%
- % of control [4]: 100%

Structure (SMILES): CC[C@@H]1[C@H](F)C(=O)N[C@@H]1COc1nccc2cc(C(N)=O)c(OC)cc12 [ZIMLOVISERTIB]
- % of inhibition [5]: 67.7%

Structure (SMILES): Cc1cc(C)cc([C@@H]2c3cc(C)ccc3NC(=O)CN2C(=O)c2ccc(Br)s2)c1
- % of inhibition [6]: -2%

Structure (SMILES): COCC(=O)NC/C=C/c1ccc2ncnc(Nc3ccc(Oc4ccc(C)nc4)c(C)c3)c2c1 [CP-724714]
- % of control [7]: 81%

Structure (SMILES): COc1cc(N(C)c2ccnc3ccc(C(F)(F)F)cc23)cc(OC)c1OC
- % binding [8]: 76%

Structure (SMILES): CCC(=O)N1CCN(c2ccc(-n3c(=O)ccc4cnc5ccc(-c6cnc7ccccc7c6)cc5c43)cc2C(F)(F)F)CC1
- % of control [9]: 91%
